{"source": "patent US12194081B2", "about": "“ARGINASE1 polypeptides” (IO BIOTECH APS, priority 2018, dated 2025)", "key": {"[1]": {"test_system": "CD4+ and CD8+ T cells in PBMCs", "assay": "Intracellular staining for IFNγ and TNFα in CD4+ and CD8+ T cells", "format": "cell-based, human", "experimental": "Intracellular staining of cell cultures was performed after PBMCs were stimulated with arginase-derived peptides for 5 hours in the presence of BD GolgiPlug™ (added after the first hour of peptide stimulation). Stimulated cells were stained with fluorescently labeled antibodies for surface markers (CD3, CD4, CD8) and thereafter permeabilized by using Fixation/Permeabilization and Permeabilization Buffer (eBioscience, cat. 00-5123-43), according to manufacturer's instructions. Permeabilized cells were then stained with fluorochrome-labeled antibodies for IFNγ and TNFα. Flow cytometry analysis was performed on a FACSCanto™ II (BD Biosciences). Antibodies used: IFNγ-APC (cat. 341117), TNFα-455 BV421 (cat. 562783), CD4-FITC (cat. 347413), CD8-PerCP (cat. 345774), CD3-APC-H7 (cat. 560275) (all from BD Biosciences), dead cells stain-FVS510 (564406, BD Biosciences) according to manufacturer's instructions."}, "[2]": {"test_system": "B16F10 melanoma", "assay": "Tumour vaccination, B16F10 melanoma tumour model", "format": "in vivo, mouse", "settings": "100 μg ArgLong2 with Montanide, days 0, 7, 14; FIG. 8", "experimental": "Animals were vaccinated subcutaneously with 100 μg peptide in DMSO/H2O in a 1:1 emulsion with incomplete Montanide ISA 51 VG. Montanide ISA 51 VG+DMSO/H2O served as a control vaccine. For subsequent analysis of the immune response to the ArgLong2 peptide, mice were sacrificed on day 7 and spleen and draining lymph nodes (dLNs) were harvested for ELISPOT setup.\nEach animal was inoculated subcutaneously into the right flank with 0.5×10^6 syngeneic tumour cells in 100 μl media. Both the syngeneic B16 F10 melanoma cells line and the syngeneic MC38 colon adenocarcinoma cell line were used. Vaccinations were initiated on day 0 and repeated once a week (day 7 and day 14). Peptide and control vaccinations were performed as described above.\nTumour growth was monitored and tumours were measured approximately every second day. Tumour volume was calculated at V [mm^3]=L×W^2/2 (where L is the longest diameter and W perpendicular to L). Maximum tumor size before mice were euthanized was 864 mm^3 (L=12 mm, W=12 mm)."}, "[3]": {"test_system": "CD4+ and CD8+ memory T cells (CD45RO+)", "assay": "ex vivo IFNγ ELISPOT of sorted memory T cells", "format": "cell-based, human", "experimental": "For in vitro ELISPOT, PBMCs from cancer patients and healthy donors were pulsed with 20 μM of Arginase 1-derived peptides and 120 U/ml IL-2 in 24-well plates for 7 days before being used in an ELISPOT assay. The cells were placed in 96-well nitrocellulose ELISPOT plates (MultiScreen MAIP N45; Millipore) pre-coated with IFNγ capture antibody (Mabtech). Arginase peptides added to a final concentration of 5 μM and plates incubated at 37° C. for 14-16 hours. After the incubation the cells were washed off and secondary biotinylated Ab (Mabtech, cat. 3420-6-1000) was added for 2 hours at room temperature. Unbound secondary antibody was washed off and streptavidin conjugated alkaline phosphatase (AP) (Mabtech, cat. 3310-10) was added for 1 hour at room temperature. Unbound conjugated enzyme was washed off and the assay was developed by adding BCIP/NBT substrate (Mabtech, cat. 3650-10). Developed ELISPOT plates were analyzed on CTL ImmunoSpot S6 Ultimate-V analyzer using Immunospot software v5.1. Responses were reported as the difference between average numbers of spots in wells stimulated with Arginase 1 and wells without added peptide.\nCD4+ and CD8+ memory T cells were sorted from freshly thawed healthy donor or cancer patient PBMC samples using magnetic bead sorting kits: Memory CD4+ T Cell Isolation Kit, human (cat. 130-091-893, Miltenyi Biotec) and CD8+ Memory T Cell Isolation Kit, human (cat. 130-094-412, Miltenyi Biotec). The purity of isolated cells was assessed by staining for CD4-FITC, CD8-PerCP, CD45RO-PE (all from BD Biosciences), dead cells were stained using LIVE/DEAD™ Fixable Near-IR Dead Cell Stain Kit (Invitrogen™, ThermoFisher Scientific).\nTo test that CD4+ and CD8+ memory T cells were sorted from PBMCs of cancer patients and healthy donors that had shown a strong spontaneous immune response ex vivo. […] The purity of memory T cell isolation was confirmed by flow cytometric analysis for CD4+ CD45RO+ and CD8+ CD45RO+ T cells and was determined to be >95%. […] Clear CD8+ memory responses could be detected in 2 healthy donors (see FIG. 4C)."}}, "data": [{"sequence": "ISAKDIVYIGLRDVDPGEHYILKTLGIKYFSMTEVDRL (Peptide fragment of human Arginase 1 (ArgLong2)) [38-mer, positions 169-206 of full length human Arginase 1]", "values": [{"measurement": "ex vivo CD4+ responses, intracellular staining", "setting": "[1]; PBMCs from two cancer patients (MM27, BC30) without prior peptide stimulation, FIG. 3B left", "value": "ex vivo CD4+ responses in PBMCs from both cancer patients"}, {"measurement": "ex vivo CD8+ responses, intracellular staining", "setting": "[1]; PBMCs from two cancer patients (MM27, BC30) without prior peptide stimulation, FIG. 3B right", "value": "ex vivo CD8+ responses in the breast cancer patient PBMCs"}, {"measurement": "CD4+ T cell responses, in vitro intracellular staining", "setting": "[1]; two healthy donors and one breast cancer patient, one week after stimulation with ArgLong2 and low dose IL-2, FIG. 3A left", "value": "detected in one healthy donor and in the breast cancer patient PBMCs"}, {"measurement": "CD8+ T cell responses, in vitro intracellular staining", "setting": "[1]; two healthy donors and one breast cancer patient, one week after stimulation with ArgLong2 and low dose IL-2, other healthy donor showed only CD8+ response, FIG. 3A right", "value": "detected in one healthy donor and in the breast cancer patient PBMCs"}, {"measurement": "tumour growth vs control vaccination, B16", "setting": "[2]", "value": "significantly delay tumour growth"}, {"measurement": "cancer patients with CD4+ memory responses", "setting": "[3]; sorted CD4+ CD45RO+ T cells from 2 cancer patients, FIG. 4B", "value": 2, "unit": "cancer patients"}, {"measurement": "healthy donors with CD4+ memory responses", "setting": "[3]; sorted CD4+ CD45RO+ T cells from 4 healthy donors, FIG. 4B", "value": 3, "unit": "healthy donors"}, {"measurement": "healthy donors with clear CD8+ memory responses", "setting": "[3]; sorted CD8+ CD45RO+ T cells, FIG. 4C", "value": 2, "unit": "healthy donors"}]}]}
